Laboratory results from ChEMBL document CHEMBL6178019, “Discovery of CYP1A1 Inhibitors for Host-Directed Therapy against Sepsis” (J Med Chem, 2025).
Active and inactive are the calls of the source. The rule behind the calls is not given here.

Key:
Cytochrome P450 1A1 = target: T1, Cytochrome P450 1A1 (Homo sapiens, UniProt P04798); test: Inhibition of CYP1A1 in human Caco-2 cells assessed as relative activity by measuring fold change at 5.0 uM incubated for 12 hrs by EROD assay relative to control; type: cell-based; details: caco-2, 12 h
T1 sequence (P04798 whole entry): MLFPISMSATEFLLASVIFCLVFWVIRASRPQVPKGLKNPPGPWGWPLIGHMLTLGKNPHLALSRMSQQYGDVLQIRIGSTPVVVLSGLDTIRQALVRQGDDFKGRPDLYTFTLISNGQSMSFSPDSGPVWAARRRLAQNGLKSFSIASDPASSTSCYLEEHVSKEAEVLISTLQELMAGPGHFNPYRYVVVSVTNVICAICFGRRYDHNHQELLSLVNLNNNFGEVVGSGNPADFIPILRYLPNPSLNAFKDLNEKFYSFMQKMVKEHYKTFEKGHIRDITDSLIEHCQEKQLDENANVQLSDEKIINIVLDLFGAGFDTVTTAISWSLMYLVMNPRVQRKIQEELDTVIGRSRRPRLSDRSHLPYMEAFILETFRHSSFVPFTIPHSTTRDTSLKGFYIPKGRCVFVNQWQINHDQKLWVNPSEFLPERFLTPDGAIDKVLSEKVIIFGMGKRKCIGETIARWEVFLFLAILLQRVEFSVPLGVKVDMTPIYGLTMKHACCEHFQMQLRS

CYP1A1 [1] = target: T2, CYP1A1 (Mus musculus, UniProt P00184); test: Inhibition of CYP1A1 in mouse RAW264.7 cells assessed as relative activity by measuring fold change at 5 uM incubated for 12 hrs by EROD assay relative to control; type: cell-based; details: read-out: FC
T2 sequence (P00184 whole entry): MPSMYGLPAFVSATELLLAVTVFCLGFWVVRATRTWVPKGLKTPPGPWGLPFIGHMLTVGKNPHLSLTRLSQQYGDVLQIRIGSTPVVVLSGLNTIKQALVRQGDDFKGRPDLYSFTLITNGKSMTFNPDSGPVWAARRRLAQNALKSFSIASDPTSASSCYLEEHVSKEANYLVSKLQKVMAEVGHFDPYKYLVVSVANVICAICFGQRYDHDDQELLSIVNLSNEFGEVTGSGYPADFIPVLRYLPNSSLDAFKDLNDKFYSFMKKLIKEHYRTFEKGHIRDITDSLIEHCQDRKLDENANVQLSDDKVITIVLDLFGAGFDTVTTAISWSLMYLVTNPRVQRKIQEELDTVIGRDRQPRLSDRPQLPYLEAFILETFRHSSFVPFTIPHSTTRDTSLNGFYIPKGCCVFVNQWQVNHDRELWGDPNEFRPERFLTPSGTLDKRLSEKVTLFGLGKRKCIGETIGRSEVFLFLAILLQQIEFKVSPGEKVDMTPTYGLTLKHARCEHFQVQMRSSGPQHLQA

RAW264.7 [2] = test: Induction of phagocytosis in mouse RAW264.7 cells at 5 uM incubated for 12 hrs by flow cytometric analysis; type: functional, cell-based
RAW264.7 [3] = test: Induction of phagocytosis in mouse RAW264.7 cells assessed as upregulation of CD204 protein level by flow cytometric analysis; type: functional, cell-based
Acinetobacter baumannii [4] = test: Antibacterial activity against Acinetobacter baumannii assessed as inhibition of bacterial growth at 0.02 to 2.5 mg/ml; type: functional, organism-based; details: dose 0.02-2.5 mg/ml
RAW264.7 [5] = test: Induction of phagocytosis in zymosan A stimulated mouse RAW264.7 cells assessed as upregulation of SR-A1 mRNA expression at 5.0 uM incubated for 12 hrs by qRT-PCR analysis; type: functional, cell-based
Mus musculus [6] = test: Effect on CYP1A1 protein expression in C57BL/6 mouse kidney infected with methicillin-resistant Staphylococcus aureus at 25 mg/kg, ip administered for 12 hrs by Western blot analysis; type: functional, organism-based
Staphylococcus aureus [7] = test: Antibacterial activity against methicillin-resistant Staphylococcus aureus infected in C57BL/6 mouse model assessed as reduction in bacterial dissemination from PLF to kidney at 25 mg/kg, ip preadministered for 12 hrs followed by bacterial infection and measured after 24 hrs; type: functional, organism-based; details: time 36.0 hrs
[8] = Toxicity in male C57BL/6 mouse assessed as effect on alanine transaminase (ALT) level in serum up to 100 mg/kg, ip measured after 12 hrs; type: organism-based; details: in vivo
Acinetobacter baumannii [9] = test: Antibacterial activity against Acinetobacter baumannii infected in C57BL/6 mouse model assessed as reduction in bacterial load in peritoneal lavage fluid at 25 mg/kg, ip pretreated for 12 hrs followed by bacterial infection and measured after 24 hrs relative to control; type: functional; parameters: scale not given: the % may be the effect or the level left; details: time 36 hrs
Staphylococcus aureus [10] = test: Antibacterial activity against methicillin-resistant Staphylococcus aureus infected in C57BL/6 mouse model assessed as reversal of creatinine level in serum at 25 mg/kg, ip administered for 12 hrs by absorbance based microplate reader; type: functional, organism-based
Staphylococcus aureus [11] = test: Antibacterial activity against methicillin-resistant Staphylococcus aureus infected in C57BL/6 mouse model assessed as reduction in bacterial dissemination from PLF to liver at 25 mg/kg, ip preadministered for 12 hrs followed by bacterial infection and measured after 24 hrs; type: functional, organism-based; details: time 36.0 hrs
[12] = Toxicity in male C57BL/6 mouse assessed as effect on creatinine level in serum up to 100 mg/kg, ip measured after 12 hrs; type: organism-based; details: in vivo
Staphylococcus aureus [13] = test: Antibacterial activity against methicillin-resistant Staphylococcus aureus infected in C57BL/6 mouse model assessed as reduction in bacterial dissemination from PLF to blood at 25 mg/kg, ip preadministered for 12 hrs followed by bacterial infection and measured after 24 hrs; type: functional, organism-based; details: time 36.0 hrs
RAW264.7 [14] = test: Induction of phagocytosis in zymosan A stimulated mouse RAW264.7 cells assessed as upregulation of CD32 mRNA expression at 5.0 uM incubated for 12 hrs by qRT-PCR analysis; type: functional, cell-based
Staphylococcus aureus [15] = test: Antibacterial activity against methicillin-resistant Staphylococcus aureus infected in CYP1A1 deficient mouse assessed as bacterial clearance in PLF at 25 mg/kg, ip pretreated for 12 hrs followed by bacterial infection for 24 hrs; type: functional, organism-based; details: time 36.0 hrs
RAW264.7 [16] = test: Induction of phagocytosis in mouse RAW264.7 cells assessed as upregulation of SR-A1 mRNA expression by qRT-PCR analysis; type: functional, cell-based
Acinetobacter baumannii [17] = test: Antibacterial activity against Acinetobacter baumannii infected in C57BL/6 mouse assessed as increase in survival at 25 mg/kg, ip preadministered for 12 hrs followed by bacterial infection and measured after 60 hrs by Kaplan Meier survival analysis; type: functional, organism-based; details: time 72.0 hrs
Staphylococcus aureus [18] = test: Antibacterial activity against methicillin-resistant Staphylococcus aureus infected in C57BL/6 mouse assessed as reversal of blood urea nitrogen level in serum at 25 mg/kg, ip administered for 12 hrs by absorbance based microplate reader; type: functional, organism-based
CYP1A1 [19] = target: T3, CYP1A1 (Homo sapiens, UniProt P04798); test: Inhibition of CYP1A1 in human Caco-2 cells assessed as relative activity by measuring fold change at 500 nM incubated for 12 hrs by EROD assay relative to control; type: cell-based; details: read-out: FC
T3 sequence (P04798 whole entry): T1 sequence (P04798 whole entry)

Mus musculus [20] = test: Effect on CYP1A1 protein expression in C57BL/6 mouse liver infected with methicillin-resistant Staphylococcus aureus at 25 mg/kg, ip administered for 12 hrs by Western blot analysis; type: functional, organism-based
Staphylococcus aureus [21] = test: Antibacterial activity against methicillin-resistant Staphylococcus aureus infected in C57BL/6 mouse model assessed as reduction in liver damage at 25 mg/kg, ip administered for 12 hrs by H and E staining based analysis; type: functional, organism-based

C#Cc1ccccc1/C=C/C(=O)c1ccc2c(c1)n(C)c(=O)n2C
fold change (FC) (Cytochrome P450 1A1): 0.01 | fold induction at 12 h, 5 µM (CYP1A1 [1]): 0.03 | Activity (RAW264.7 [2]): Active | Activity (RAW264.7 [3]): Active | Activity (Acinetobacter baumannii [4]): Active | Activity (RAW264.7 [5]): Active | Activity (Mus musculus [6]): inactive | Activity (Staphylococcus aureus [7]): Active | Activity [8]: Non-toxic | Activity (Acinetobacter baumannii [9]): >70% | Activity (Staphylococcus aureus [10]): Active | Activity (Staphylococcus aureus [11]): Active | Activity [12]: Non-toxic | Activity (Staphylococcus aureus [13]): Active | Activity (RAW264.7 [14]): Active | Activity (Staphylococcus aureus [15]): inactive | Activity (RAW264.7 [16]): Active | Activity (Acinetobacter baumannii [17]): Active | Activity (Staphylococcus aureus [18]): Active | fold induction at 12 h, 0.5 µM (CYP1A1 [19]): 0.06 | Activity (Mus musculus [20]): inactive | Activity (Staphylococcus aureus [21]): Active

Cn1cc(/C=C/C(=O)c2ccc3c(c2)n(C)c(=O)n3C)c2ccccc21
fold change (FC) (Cytochrome P450 1A1): 0.09 | fold induction at 12 h, 5 µM (CYP1A1 [1]): 0.25 | Activity (RAW264.7 [2]): Active | Activity (RAW264.7 [3]): Active | Activity (Acinetobacter baumannii [4]): Active | Activity (RAW264.7 [5]): Active | Activity (Mus musculus [6]): inactive | Activity (Staphylococcus aureus [7]): Active | Activity [8]: Non-toxic | Activity (Acinetobacter baumannii [9]): >70% | Activity (Staphylococcus aureus [10]): Active | Activity (Staphylococcus aureus [11]): Active | Activity [12]: Non-toxic | Activity (Staphylococcus aureus [13]): Active | Activity (RAW264.7 [14]): Active | Activity (Staphylococcus aureus [15]): inactive | Activity (RAW264.7 [16]): Active | Activity (Acinetobacter baumannii [17]): Active | Activity (Staphylococcus aureus [18]): Active | fold induction at 12 h, 0.5 µM (CYP1A1 [19]): 0.25 | Activity (Mus musculus [20]): inactive | Activity (Staphylococcus aureus [21]): Active
